Test results published in publication PMC12595434, “Development of retinoid nuclear receptor pathway antagonists through targeting aldehyde dehydrogenase 1A3” (iScience, 2025).
Values after ≈ are worked out from the molar mass of the structure shown. Read-outs that look alike come from different tables or passages of the source.

How the values were obtained:
mouse ALDH1A2 = biological target: T1, mouse ALDH1A2 (Mus musculus, UniProt Q62148); assay: Recombinant enzyme activity assay; format: biochemical; details: recombinant activity assay (Table 1); read-out: IC50 molecular, mouse ALDH1A2
T1 construct: made in house; host or cells: BL21-DE3 E. coli

mouse ALDH1A3 = biological target: T2, mouse ALDH1A3 (Mus musculus, UniProt Q9JHW9); assay: Recombinant enzyme activity assay; format: biochemical
T2 construct: made in house; host or cells: BL21-DE3 E. coli
T2 sequence (Q9JHW9 1-512): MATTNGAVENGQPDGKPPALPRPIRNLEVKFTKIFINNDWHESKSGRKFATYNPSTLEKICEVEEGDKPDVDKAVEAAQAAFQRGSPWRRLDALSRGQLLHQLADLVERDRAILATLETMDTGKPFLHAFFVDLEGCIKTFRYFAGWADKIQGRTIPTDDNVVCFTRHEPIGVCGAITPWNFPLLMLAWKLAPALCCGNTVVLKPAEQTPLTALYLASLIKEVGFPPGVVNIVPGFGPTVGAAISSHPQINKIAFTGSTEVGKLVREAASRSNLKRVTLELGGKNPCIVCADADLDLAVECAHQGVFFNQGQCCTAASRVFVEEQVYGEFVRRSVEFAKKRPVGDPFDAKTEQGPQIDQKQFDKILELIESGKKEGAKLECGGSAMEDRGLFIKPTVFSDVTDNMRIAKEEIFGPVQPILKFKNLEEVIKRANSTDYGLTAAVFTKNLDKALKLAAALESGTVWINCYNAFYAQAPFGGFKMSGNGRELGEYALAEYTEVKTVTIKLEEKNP

human ALDH1A2 = biological target: T3, human ALDH1A2 (Homo sapiens, UniProt O94788); assay: Recombinant enzyme activity assay; format: biochemical; details: for IC50: recombinant activity assay (Table 1), read-out: IC50 molecular, human ALDH1A2
T3 construct: made in house; host or cells: BL21-DE3 E. coli
T3 sequence (O94788 1-518): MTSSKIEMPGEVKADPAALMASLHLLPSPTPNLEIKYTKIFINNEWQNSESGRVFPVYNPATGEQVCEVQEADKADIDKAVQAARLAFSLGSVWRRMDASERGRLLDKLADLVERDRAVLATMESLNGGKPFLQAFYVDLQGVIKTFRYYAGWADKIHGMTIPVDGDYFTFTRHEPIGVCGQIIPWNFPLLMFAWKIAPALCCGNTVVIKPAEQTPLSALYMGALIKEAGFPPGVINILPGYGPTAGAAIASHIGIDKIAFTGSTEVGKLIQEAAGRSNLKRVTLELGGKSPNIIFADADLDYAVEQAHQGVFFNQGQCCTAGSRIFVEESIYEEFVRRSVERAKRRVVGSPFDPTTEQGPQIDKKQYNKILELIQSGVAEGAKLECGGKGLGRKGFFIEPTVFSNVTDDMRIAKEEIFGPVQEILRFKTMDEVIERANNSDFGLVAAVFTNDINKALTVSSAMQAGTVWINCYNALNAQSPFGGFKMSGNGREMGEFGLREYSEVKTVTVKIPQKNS

human ALDH2 = biological target: T4, human ALDH2 (Homo sapiens, UniProt P05091); assay: Recombinant enzyme activity assay; format: biochemical; details: dose titration
T4 construct: made in house; host or cells: BL21-DE3 E. coli

Kinetic solubility = format: physicochemical; details: kinetic from dmso stock
Excerpt: (§1) Table 1 Physiochemical, biochemical, and metabolic profile of lead compounds MBE1 and MBE1.5 | column: MBE1; MBE1.5

CYP3A4 = CYP3A4 (Homo sapiens, UniProt P08684); assay: CYP inhibition; format: in vitro ADME
Protein binding (human) = format: in vitro ADME; details: plasma
Excerpt: as §1

[1] = pH 4.5, aqueous buffer, read-out: Kinetic solubility pH 4.5
[2] = pH 7.6, aqueous buffer, read-out: Kinetic solubility pH 7.6

Chain of CYP3A4 (P08684 whole entry): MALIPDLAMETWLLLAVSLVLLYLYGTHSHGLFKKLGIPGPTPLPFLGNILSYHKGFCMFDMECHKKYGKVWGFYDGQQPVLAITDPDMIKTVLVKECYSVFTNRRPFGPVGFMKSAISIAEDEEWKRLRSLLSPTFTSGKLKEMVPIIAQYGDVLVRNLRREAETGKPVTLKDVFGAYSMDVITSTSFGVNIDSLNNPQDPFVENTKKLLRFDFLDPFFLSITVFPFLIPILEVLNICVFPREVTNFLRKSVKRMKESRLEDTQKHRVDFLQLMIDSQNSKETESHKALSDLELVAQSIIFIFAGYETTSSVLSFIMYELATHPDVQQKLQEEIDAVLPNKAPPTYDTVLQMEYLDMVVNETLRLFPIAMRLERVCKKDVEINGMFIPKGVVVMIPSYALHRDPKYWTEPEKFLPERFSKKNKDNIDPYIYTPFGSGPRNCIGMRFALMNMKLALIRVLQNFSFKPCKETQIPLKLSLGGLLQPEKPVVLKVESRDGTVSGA
T1 sequence (Q62148 whole entry): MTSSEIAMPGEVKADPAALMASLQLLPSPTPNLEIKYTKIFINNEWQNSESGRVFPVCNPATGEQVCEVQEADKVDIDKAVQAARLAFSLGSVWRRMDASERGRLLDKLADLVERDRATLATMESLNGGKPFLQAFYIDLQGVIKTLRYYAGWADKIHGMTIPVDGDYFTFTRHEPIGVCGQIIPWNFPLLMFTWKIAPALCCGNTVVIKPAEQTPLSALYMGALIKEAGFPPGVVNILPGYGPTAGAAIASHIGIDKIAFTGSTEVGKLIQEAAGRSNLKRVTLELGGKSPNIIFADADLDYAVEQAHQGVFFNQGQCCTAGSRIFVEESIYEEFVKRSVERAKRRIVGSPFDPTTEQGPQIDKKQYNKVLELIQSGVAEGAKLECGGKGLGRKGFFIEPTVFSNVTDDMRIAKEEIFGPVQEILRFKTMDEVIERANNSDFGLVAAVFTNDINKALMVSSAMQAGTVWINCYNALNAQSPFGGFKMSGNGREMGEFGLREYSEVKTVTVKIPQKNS
T4 sequence (P05091 18-517): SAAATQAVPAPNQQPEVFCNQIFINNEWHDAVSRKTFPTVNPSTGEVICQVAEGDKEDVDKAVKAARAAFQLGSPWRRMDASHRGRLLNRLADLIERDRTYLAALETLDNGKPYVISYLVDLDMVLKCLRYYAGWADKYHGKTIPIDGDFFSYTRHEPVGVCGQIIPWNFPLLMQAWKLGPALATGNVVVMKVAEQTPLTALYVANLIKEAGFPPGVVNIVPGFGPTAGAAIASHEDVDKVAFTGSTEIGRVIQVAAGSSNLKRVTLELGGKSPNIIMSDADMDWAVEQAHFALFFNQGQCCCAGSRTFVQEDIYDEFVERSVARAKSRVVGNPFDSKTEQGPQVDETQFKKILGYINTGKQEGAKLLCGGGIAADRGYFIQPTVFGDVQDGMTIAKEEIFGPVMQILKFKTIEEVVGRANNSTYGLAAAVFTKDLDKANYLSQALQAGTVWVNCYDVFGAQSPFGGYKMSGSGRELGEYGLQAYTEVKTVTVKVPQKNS

Compound | IC50 (mouse ALDH1A2) [µM] | IC50 (mouse ALDH1A3; dose titration, substrate competition assay, recombinant mouse ALDH1A3, 4-parameter equation, read-out: muALDH1A3 IC50) [µM] | fold lower affinity for ALDH1A2 than for ALDH1A3 (human ALDH1A2; biochemical inhibition of each isoform) [fold] | IC50 (human ALDH1A2) [µM] | inhibitory activity against ALDH2 (in words) (human ALDH2) | solubility kinetic (Kinetic solubility; [1]) [µM] | solubility kinetic (Kinetic solubility; [2]) [µM] | inhibition at 10 µM (CYP3A4) [%] | fraction unbound (Protein binding (human)) | IC50 (mouse ALDH1A3; recombinant activity assay (Table 1), read-out: IC50 molecular, mouse ALDH1A3) [µM] | inhibitory activity against ALDH1A2 (in words) (human ALDH1A2; dose titration, up to 10 μM)
CCc1cnccc1C(=O)Nc1cc2c(cc1F)NC(=O)CC2 [MBE1, 3-ethyl-N-(7-fluoro-2-oxo-3,4-dihydro-1H-quinolin-6-yl)pyridine-4-carboxamide] | 3.33 | 0.209 | 4 | 3.33 | no inhibition | > 200 | > 200 | 42 | 0.527 |  | 
CCc1ccccc1C(=O)Nc1cc2c(cc1F)NC(=O)CC2 [MBE1.5, 2-ethyl-N-(7-fluoro-2-oxo-3,4-dihydro-1H-quinolin-6-yl)benzamide] | 4 |  |  | 5 | no inhibition | 34.2 (≈ 10.7 µg/mL) | 33.3 (≈ 10.4 µg/mL) | 6.3 | 0.137 | 0.149 | minimal inhibition
